The target in assay [1] is T1, human cloned CHRM4 receptor (M4_CHO cells) (Homo sapiens, UniProt P08173).
T1 construct: expressed in transfected cells; host or cells: CHO-K1
T1 sequence (P08173 1-479): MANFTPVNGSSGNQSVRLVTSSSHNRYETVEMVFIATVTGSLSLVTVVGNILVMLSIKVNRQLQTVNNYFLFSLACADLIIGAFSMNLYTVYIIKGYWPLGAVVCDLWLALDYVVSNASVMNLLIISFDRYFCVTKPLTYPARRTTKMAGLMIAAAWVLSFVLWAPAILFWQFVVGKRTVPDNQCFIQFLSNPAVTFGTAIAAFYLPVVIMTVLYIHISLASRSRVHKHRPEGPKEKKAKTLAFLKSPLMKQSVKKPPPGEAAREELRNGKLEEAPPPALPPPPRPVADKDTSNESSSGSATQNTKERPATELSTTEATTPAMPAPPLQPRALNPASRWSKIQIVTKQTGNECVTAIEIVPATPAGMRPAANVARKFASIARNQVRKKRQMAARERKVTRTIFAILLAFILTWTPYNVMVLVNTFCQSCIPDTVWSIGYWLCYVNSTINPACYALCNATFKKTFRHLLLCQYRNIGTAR
Briefly: CHRM4 Ca++ Flux Assay (agonist mode, FDSS 7000EX). The following applies: for Emax: Percent Activity, read-out: M4 FDSS PA; for pEC50: geometric mean if tested more than once, read-out: M4 FDSS EC50. It counts as cell-based. The method in brief: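 Agonist-mode response was expressed as percent of the Carbachol EC100 and fitted with four-parameter nonlinear regression over an 11-point triplicate dose series. Intracellular Ca++ was tracked for 3 min by fluorescent dye in CHO-K1 cells stably expressing human CHRM4. Cells were preincubated 60 min with 20 μM ATP in buffer containing 2.5 mM probenecid.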

Assay [2] has as its target T2, human cloned CHRM3 receptor (M3_CHO cells) (Homo sapiens, UniProt P20309).
T2 construct: expressed in transfected cells; host or cells: CHO-K1
Briefly: CHRM3 Ca++ Flux Assay (agonist mode, FDSS 7000EX). Format: cell-based. To be noted: for Emax: Percent Activity measured to EC100 of Carbachol, read-out: M3 FDSS PA; for pEC50: agonist mode, geometric mean if tested more than once, read-out: M3 FDSS EC50. An outline of the steps: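 Stable CHO-K1 lines (human M3 or M5), calcium-dye loaded ≥1 h, assayed in Ca/Mg-free HBSS + 20 mM HEPES + 2.5 mM probenecid. 11-pt dose response, triplicate, 3 min fluorescence read. 4-parameter regression; % activity vs carbachol EC100.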

pEC50: −log10 of the molar value.

T2 sequence (P20309 whole entry): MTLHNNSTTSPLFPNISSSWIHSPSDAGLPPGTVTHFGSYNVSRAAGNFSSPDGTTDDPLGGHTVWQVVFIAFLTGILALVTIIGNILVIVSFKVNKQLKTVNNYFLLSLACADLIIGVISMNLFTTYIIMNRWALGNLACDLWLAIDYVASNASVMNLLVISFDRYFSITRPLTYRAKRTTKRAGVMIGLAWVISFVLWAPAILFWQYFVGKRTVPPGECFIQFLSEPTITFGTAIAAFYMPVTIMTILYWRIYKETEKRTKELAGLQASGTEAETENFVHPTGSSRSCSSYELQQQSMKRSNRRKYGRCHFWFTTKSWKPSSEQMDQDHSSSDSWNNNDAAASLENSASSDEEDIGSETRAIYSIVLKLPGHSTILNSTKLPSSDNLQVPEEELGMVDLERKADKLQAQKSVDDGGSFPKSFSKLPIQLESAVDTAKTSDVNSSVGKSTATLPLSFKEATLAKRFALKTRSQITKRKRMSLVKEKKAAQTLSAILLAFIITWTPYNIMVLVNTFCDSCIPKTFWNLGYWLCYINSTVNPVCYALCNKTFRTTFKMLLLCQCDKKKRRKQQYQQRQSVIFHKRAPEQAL

The pEC50 is −log10 of the EC50, conventionally taken in molar units. For `O=C(C1COC1)N1CC2(CC[C@@H](N3CCC(c4ccccc4OCCOC4COC4)CC3)C2)C1` [Example 7EE, (R)-oxetan-3-yl(6-(4-(2-(2-(oxetan-3-yloxy)ethoxy)phenyl)piperidin-1-yl)-2-azaspiro[3.4]octan-2-yl)methanone], in assay [1], the Emax amounted to 61% and the pEC50 is 8.22. In addition, in assay [2], the Emax was 0% and the pEC50 is less than 4.60.

For the compound `c1ccc(C2CCN([C@@H]3CCC4(C3)CN(c3cncnc3)C4)CC2)c(OCC2COC2)c1` [Example 1N, (R)-6-(4-(2-(oxetan-3-ylmethoxy)phenyl)piperidin-1-yl)-2-(pyrimidin-5-yl)-2-azaspiro[3.4]octane], in assay [1], the Emax amounted to 62% and the pEC50 is greater than 9.40. For the same compound, in assay [2], the Emax was determined as 0% and the pEC50 was less than 4.60.

On to `CC(C)(O)COc1ccccc1C1CCN([C@@H]2CCC3(C2)CN(C(=O)C2COC2)C3)CC1` [Example 7L, (R)-(6-(4-(2-(2-hydroxy-2-methylpropoxy)phenyl)piperidin-1-yl)-2-azaspiro[3.4]octan-2-yl)(oxetan-3-yl)methanone], for which, in assay [1], the Emax was found to be 58% and the pEC50 is 7.70. In assay [2], the Emax amounted to 0% and the pEC50 is less than 4.60.

Take `c1ccc(C2CCN([C@@H]3CCC4(C3)CN(c3nnco3)C4)CC2)c(OC2CC3(COC3)C2)c1` [Example 1A, (R)-2-(6-(4-(2-((2-oxaspiro[3.3]heptan-6-yl)oxy)phenyl)piperidin-1-yl)-2-azaspiro[3.4]octan-2-yl)-1,3,4-oxadiazole]: in assay [1], the Emax was 81% and the pEC50 is 9.00. Moreover, in assay [2], the Emax amounted to 0% and the pEC50 is less than 4.60.

Take `O=C(C1COC1)N1CC2(CC[C@@H](N3CCC(c4ccccc4OC[C@@H]4CCOC4)CC3)C2)C1` [Example 7E, oxetan-3-yl((R)-6-(4-(2-(((R)-tetrahydrofuran-3-yl)methoxy)phenyl)piperidin-1-yl)-2-azaspiro[3.4]octan-2-yl)methanone]: in assay [1], the Emax was 59% and the pEC50 is 8.52. In assay [2], the Emax amounted to 0% and the pEC50 was less than 4.60.

On to `O=C(C1COC1)N1CC2(CC[C@@H](N3CCC(c4ccccc4OC4CCC4)CC3)C2)C1` [Example 7H, (R)-(6-(4-(2-cyclobutoxyphenyl)piperidin-1-yl)-2-azaspiro[3.4]octan-2-yl)(oxetan-3-yl)methanone], for which, in assay [1], the Emax was found to be 70% and the pEC50 was 8.40. In assay [2], the Emax turned out to be 0% and the pEC50 was less than 4.60.

Take `c1ccc(C2CCN([C@@H]3CCC4(C3)CN(c3nncs3)C4)CC2)c(OC2COC2)c1` [Example 3A, (R)-2-(6-(4-(2-(oxetan-3-yloxy)phenyl)piperidin-1-yl)-2-azaspiro[3.4]octan-2-yl)-1,3,4-thiadiazole]: the Emax turned out to be 88% in assay [1] and 0% in assay [2]. In addition, the pEC50 was greater than 9.40 in assay [1] and less than 4.60 in assay [2].

Turning to `COc1ccc(F)cc1C1CCN([C@@H]2CCC3(C2)CN(c2ccnnc2)C3)CC1` [Example 5V, (R)-6-(4-(5-fluoro-2-methoxyphenyl)piperidin-1-yl)-2-(pyridazin-4-yl)-2-azaspiro[3.4]octane], the results for the Emax in assay [1] and in assay [2] were 59% and 0%, respectively. Besides, the pEC50 is 7.70 in assay [1] and less than 4.60 in assay [2].

In the case of `c1ccc(C2CCN([C@@H]3CCC4(C3)CN(c3cncnc3)C4)CC2)c(OC2CC3(COC3)C2)c1` [Example 1O, (R)-6-(4-(2-((2-oxaspiro[3.3]heptan-6-yl)oxy)phenyl)piperidin-1-yl)-2-(pyrimidin-5-yl)-2-azaspiro[3.4]octane], in assay [1], the Emax was 59% and the pEC50 is 8.52. Also, in assay [2], the Emax turned out to be 0% and the pEC50 was less than 4.60.

As to `COc1ccccc1C1CCN([C@@H]2CCC3(C2)CN(c2cnc(C)cn2)C3)CC1` [Example 5DD, (R)-6-(4-(2-methoxyphenyl)piperidin-1-yl)-2-(5-methylpyrazin-2-yl)-2-azaspiro[3.4]octane], in assay [1], the Emax stood at 26% and the pEC50 was 7.09. In addition, in assay [2], the Emax was 0% and the pEC50 was less than 4.60.

For the compound `CC1(COc2ccccc2C2CCN([C@@H]3CCC4(C3)CN(c3nnco3)C4)CC2)CCOCC1` [Example 2E, (R)-2-(6-(4-(2-((4-methyltetrahydro-2H-pyran-4-yl)methoxy)phenyl)piperidin-1-yl)-2-azaspiro[3.4]octan-2-yl)-1,3,4-oxadiazole], in assay [1], the Emax was found to be 86% and the pEC50 was 8.70. Further, in assay [2], the Emax came to 0% and the pEC50 was less than 4.60.

Regarding `c1ccc(C2CCN([C@@H]3CCC4(C3)CN(c3nncs3)C4)CC2)c(OCC2COC2)c1` [Example 1G, (R)-2-(6-(4-(2-(oxetan-3-ylmethoxy)phenyl)piperidin-1-yl)-2-azaspiro[3.4]octan-2-yl)-1,3,4-thiadiazole], in assay [1], the Emax was found to be 82% and the pEC50 is 9.00. Further, in assay [2], the Emax came to 0% and the negative-log EC50 (pEC50) is less than 4.60.

Regarding `CC(C)(O)CCOc1ccccc1C1CCN([C@@H]2CCC3(C2)CN(c2nncs2)C3)CC1` [Example 3H, (R)-4-(2-(1-(2-(1,3,4-thiadiazol-2-yl)-2-azaspiro[3.4]octan-6-yl)piperidin-4-yl)phenoxy)-2-methylbutan-2-ol], in assay [1], the Emax turned out to be 48% and the pEC50 is 8.10. In assay [2], the Emax worked out at 0% and the pEC50 is less than 4.60.

Regarding `c1ccc(C2CCN([C@@H]3CCC4(C3)CN(c3cncnc3)C4)CC2)c(OC2COC2)c1` [Example 1K, (R)-6-(4-(2-(oxetan-3-yloxy)phenyl)piperidin-1-yl)-2-(pyrimidin-5-yl)-2-azaspiro[3.4]octane], in assay [1], the Emax came to 74% and the pEC50 is 9.00. Moreover, in assay [2], the Emax is 0% and the negative-log EC50 (pEC50) is less than 4.60.

For `N#CCCOc1ccccc1C1CCN([C@@H]2CCC3(C2)CN(C(=O)C2COC2)C3)CC1` [Example 7D, (R)-3-(2-(1-(2-(oxetane-3-carbonyl)-2-azaspiro[3.4]octan-6-yl)piperidin-4-yl)phenoxy)propanenitrile], in assay [1], the Emax worked out at 57% and the pEC50 is 8.70. In assay [2], the Emax amounted to 0% and the pEC50 is less than 4.60.

Source of the values: patent US12122761B2, “2-azaspiro[3.4]octane derivatives as M4 agonists” (NOVARTIS AG, priority 2019, dated 2024).
